US10538487B2, “Sulfonylureas and related compounds and use of same” (priority 2015, dated 2020)
Where two headings read alike, the source gives them in different places.

How the values were obtained:
NLRP3 inflammasome = NLRP3 inflammasome (Homo sapiens, UniProt Q96P20); experiment: Inhibition of IL-1β release, NLRP3 inflammasome activation assay in HMDM; type: cell-based
Procedure: The following assays can be used to determine inhibitory activity of test compounds on the NLRP3 inflammasome using common stimuli such as adenosine triphosphate, nigericin, LeuLeu-OMe or monosodium urate crystals (MSU).
To generate HMDM, human monocytes are isolated from buffy coat blood using Ficoll-Plaque Plus (GE Healthcare) and density centrifugation. CD14^+ cell selection is performed using MACS magnetic beads (Miltenyl Biotec).
HMDM are seeded at 1×10^5/ml. […] Medium is removed and replaced with serum free medium (SFM) containing test compound 30 min prior to NLRP3 stimulation. […] ATP can be sourced from Sigma Aldrich, nigericin and MSU from Invivogen and LeuLeu-Ome from Chem-Impex International.
For ELISA and cell death assays cells are seeded in 96 well plates. Supernatants are removed and analysed using ELISA kits according to the manufacturer's instructions (DuoSet® R&D Systems, ReadySetGo!® eBioscience, BD OptEIA™, or Perkin Elmer AlphaLISA®). Cell death is assessed by measurement of LDH release relative to a 100% cell lysis control using the CytoTox96® non-radioactive cytotoxicity assay (Promega).

[1] = Single dose pharmacokinetic study in mice (iv 4 mg/Kg, po 20 mg/Kg), plasma concentration post-dosing; type: in vivo, mouse; conditions: mice, iv dose of 4 mg/Kg and po dose of 20 mg/Kg
Procedure: This is advantageous leading to comparatively lower doses or less frequent administration. The procedure followed was: Male C57BL/6 mice were used at 7-9 weeks age with 3 animals per group. Mice were dosed with test compound using single intravenous bolus or oral gavage. Blood samples were taken via submandibular or saphenous vein for analysis of plasma concentrations of compound by LC-MS/MS at the following timepoints: IV (3 mice): 0.083, 0.25, 0.5, 1, 2, 4, 8 and 24 hours post dosing, PO (3 mice): 0.25, 0.5, 1, 2, 4, 8 and 24 hours post dosing. LC-MS/MS method for the quantitative determination of test compound in corresponding biological matrix was developed. […] The results are shown graphically in FIGS. 1A to 1C (MCC950) and FIGS. 2A to 2C (MCC7840).

[2] = inhibition of IL-1β release, class symbols, read-out: Avg. IL-1β IC50 HMDM

NLRP3 inflammasome, sequence (Q96P20 whole entry): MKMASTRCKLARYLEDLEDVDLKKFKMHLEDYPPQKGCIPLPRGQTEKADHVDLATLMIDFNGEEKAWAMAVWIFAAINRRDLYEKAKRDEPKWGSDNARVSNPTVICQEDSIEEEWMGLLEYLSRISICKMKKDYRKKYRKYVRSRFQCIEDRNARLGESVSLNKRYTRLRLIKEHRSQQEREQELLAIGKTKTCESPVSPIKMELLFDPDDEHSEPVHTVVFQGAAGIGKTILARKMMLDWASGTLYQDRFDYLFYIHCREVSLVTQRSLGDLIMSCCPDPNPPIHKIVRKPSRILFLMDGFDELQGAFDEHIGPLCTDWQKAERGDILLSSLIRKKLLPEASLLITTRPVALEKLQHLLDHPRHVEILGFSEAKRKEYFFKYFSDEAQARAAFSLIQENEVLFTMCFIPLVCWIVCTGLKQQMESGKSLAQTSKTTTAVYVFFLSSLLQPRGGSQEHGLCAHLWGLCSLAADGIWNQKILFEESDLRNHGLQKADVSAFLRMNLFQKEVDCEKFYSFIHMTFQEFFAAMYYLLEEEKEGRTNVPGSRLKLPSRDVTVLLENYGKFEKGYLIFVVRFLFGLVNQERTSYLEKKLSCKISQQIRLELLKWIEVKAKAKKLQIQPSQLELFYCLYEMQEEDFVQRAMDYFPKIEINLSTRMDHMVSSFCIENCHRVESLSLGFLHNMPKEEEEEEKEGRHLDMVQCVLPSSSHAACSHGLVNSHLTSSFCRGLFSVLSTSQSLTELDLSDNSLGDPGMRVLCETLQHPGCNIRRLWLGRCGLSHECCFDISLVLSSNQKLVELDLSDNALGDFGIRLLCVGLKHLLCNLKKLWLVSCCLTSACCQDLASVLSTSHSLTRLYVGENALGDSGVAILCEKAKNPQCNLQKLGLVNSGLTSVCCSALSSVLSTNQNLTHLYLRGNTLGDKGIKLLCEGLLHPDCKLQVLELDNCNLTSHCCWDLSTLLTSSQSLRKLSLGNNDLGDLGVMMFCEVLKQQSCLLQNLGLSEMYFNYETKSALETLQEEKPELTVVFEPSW

Structure (SMILES) | IC50 (NLRP3 inflammasome; [2]) [nM] | also measured
CCc1ccc(S(=O)(=O)NC(=O)Nc2c3c(cc4c2CCC4)CCC3)o1 [5-ethyl-N-((1,2,3,5,6,7-hexahydro-s-indacen-4-yl)carbamoyl)furan-2-sulfonamide] | < 1000 | 
CC(C)c1cc(S(=O)(=O)NC(=O)Nc2c3c(cc4c2CCC4)CCC3)nn1C [N-((1,2,3,5,6,7-hexahydro-s-indacen-4-yl)carbamoyl)-5-isopropyl-1-methyl-1H-pyrazole-3-sulfonamide] | < 1000 | 
O=C(Nc1c2c(cc3c1CCC3)CCC2)NS(=O)(=O)c1cnc2c(c1)CCC2 [N-((1,2,3,5,6,7-hexahydro-s-indacen-4-yl)carbamoyl)-6,7-dihydro-5H-cyclopenta[b]pyridine-3-sulfonamide] | < 100 | 
NCCCn1cc(CCC(=O)Nc2cccc(S(=O)(=O)NC(=O)Nc3c4c(cc5c3CCC5)CCC4)c2)nn1 [3-(1-(3-aminopropyl)-1H-1,2,3-triazol-4-yl)-N-(3-(N-((1,2,3,5,6,7-hexahydro-s-indacen-4-yl)carbamoyl)sulfamoyl)phenyl)propanamide] | < 1000 | 
CC(C)c1cc(Cl)cc(C(C)C)c1NC(=O)NS(=O)(=O)c1ccc2ccccc2c1 [N-((4-chloro-2,6-diisopropylphenyl)carbamoyl)naphthalene-2-sulfonamide] | < 10000 | 
O=C(Nc1c2c(cc3c1CCC3)CCC2)NS(=O)(=O)c1ccc(Cl)cc1 [4-chloro-N-((1,2,3,5,6,7-hexahydro-s-indacen-4-yl)carbamoyl)benzenesulfonamide] | < 1000 | 
CN(C)S(=O)(=O)NC(=O)Nc1c2c(cc3c1CCC3)CCC2 [N-[1,2,3,5,6,7-hexahydro-s-indacen-4-yl]-N′-[(dimethylamino)sulfonyl]urea] | < 10000 | 
O=C(CCc1cn(CCCNc2ccc([N+](=O)[O-])c3nonc23)nn1)Nc1cccc(S(=O)(=O)NC(=O)Nc2c3c(cc4c2CCC4)CCC3)c1 [N-(3-(N-((1,2,3,5,6,7-hexahydro-s-indacen-4-yl)carbamoyl)sulfamoyl)phenyl)-3-(1-(3-((7-nitrobenzo[c][1,2,5]oxadiazol-4-yl)amino)propyl)-1H-1,2,3-triazol-4-yl)propanamide] | < 10000 | 
O=C(Nc1c2c(cc3c1CCC3)CCC2)NS(=O)(=O)c1cc(C(F)(F)F)ccn1 [N-((1,2,3,5,6,7-hexahydro-s-indacen-4-yl)carbamoyl)-4-(trifluoromethyl)pyridine-2-sulfonamide] | < 100 | 
C#CCNC(=O)CCc1ccc(S(=O)(=O)NC(=O)Nc2c3c(cc4c2CCC4)CCC3)cc1 [3-(4-(N-((1,2,3,5,6,7-hexahydro-s-indacen-4-yl)carbamoyl)sulfamoyl)phenyl)-N-(prop-2-yn-1-yl)propanamide] | < 100 | 
O=C(Nc1c2c(cc3c1CCC3)CCC2)NS(=O)(=O)c1ccc2c(c1)S(=O)(=O)CC2 [N-((1,2,3,5,6,7-hexahydro-s-indacen-4-yl)carbamoyl)-2,3-dihydrobenzo[b]thiophene-6-sulfonamide 1,1-dioxide] | < 1000 | 
CC(C)(C)c1cc(C(C)(C)C)nc(NC(=O)NS(=O)(=O)c2cc(C(C)(C)O)co2)n1 [N-((4,6-di-tert-butylpyrimidin-2-yl)carbamoyl)-4-(2-hydroxypropan-2-yl)furan-2-sulfonamide] | < 50000 | 
Cc1oc(S(=O)(=O)NC(=O)Nc2c(C(C)C)cccc2C(C)C)cc1C(C)(C)O [N-((2,6-diisopropylphenyl)carbamoyl)-4-(2-hydroxypropan-2-yl)-5-methylfuran-2-sulfonamide] | < 100 | 
CC(C)(O)c1cccc(S(=O)(=O)NC(=O)Nc2c3c(cc4c2CCC4)CCC3)c1 [N-((1,2,3,5,6,7-hexahydro-s-indacen-4-yl)carbamoyl)-3-(2-hydroxypropan-2-yl)benzenesulfonamide] | < 100 | 
O=C(Nc1c2c(cc3c1CCC3)CCC2)NS(=O)(=O)C1CCCC1 [N-((1,2,3,5,6,7-hexahydro-s-indacen-4-yl)carbamoyl)cyclopentanesulfonamide] | < 10000 | 
Cc1cc(S(=O)(=O)NC(=O)Nc2c3c(cc4c2CCC4)CCC3)nn1C [N-((1,2,3,5,6,7-hexahydro-s-indacen-4-yl)carbamoyl)-1,5-dimethyl-1H-pyrazole-3-sulfonamide] | < 1000 | 
O=C(Nc1c2c(cc3c1OCC3)OCC2)NS(=O)(=O)c1cccc(C2(C(F)(F)F)N=N2)c1 [N-((2,3,6,7-tetrahydrobenzo[1,2-b:4,5-b′]difuran-4-yl)carbamoyl)-3-(3-(trifluoromethyl)-3H-diazirin-3-yl)benzenesulfonamide] | < 10000 | 

Structure (SMILES) | IC50 (NLRP3 inflammasome; [2]) [nM] | also measured
Cn1nc(S(=O)(=O)NC(=O)Nc2c3c(cc4c2CCC4)CCC3)cc1C(F)(F)F [N-((1,2,3,5,6,7-hexahydro-s-indacen-4-yl)carbamoyl)-1-methyl-5-(trifluoromethyl)-1H-pyrazole-3-sulfonamide] | < 1000 | 
O=C(Nc1c2c(cc3c1CCC3)CCC2)NS(=O)(=O)C1CCOC1 (centres unmarked) [N-((1,2,3,5,6,7-hexahydro-s-indacen-4-yl)carbamoyl)tetrahydrofuran-3-sulfonamide] | < 10000 | 
CC(C)c1cc(Cl)cc(C(C)C)c1NC(=O)NS(=O)(=O)c1cc(C(C)(C)O)n(-c2ccccc2)n1 [sodium ((4-chloro-2,6-diisopropylphenyl)carbamoyl)((5-(2-hydroxypropan-2-yl)-1-phenyl-1H-pyrazol-3-yl)sulfonyl)amide] | < 100 | 
CC(C)(O)c1coc(S(=O)(=O)NC(=O)Nc2cccc3cccnc23)c1 [4-(2-hydroxypropan-2-yl)-N-(quinolin-8-ylcarbamoyl)furan-2-sulfonamide] | < 10000 | 
O=C(Nc1c2c(cc3c1CCC3)CCC2)NS(=O)(=O)c1ccc2c(c1)OCO2 [N-((1,2,3,5,6,7-hexahydro-s-indacen-4-yl)carbamoyl)benzo[d][1,3]dioxole-5-sulfonamide] | < 1000 | 
CC(C)c1cc(Cl)cc(C(C)C)c1NC(=O)NS(=O)(=O)c1cccc2cnccc12 [N-((4-chloro-2,6-diisopropylphenyl)carbamoyl)isoquinoline-5-sulfonamide] | < 1000 | 
CN(C)c1ccc2c(CC(=O)NCCc3ccc(S(=O)(=O)NC(=O)Nc4c5c(cc6c4CCC6)CCC5)cc3)cc(=O)oc2c1 [2-(7-(Dimethylamino)-2-oxo-2H-chromen-4-yl)-N-(4-(N-(1,2,3,5,6,7-hexahydro-s-indacen-4-ylcarbamoyl)sulfamoyl)phenethyl)acetamide] | < 1000 | 
[2H]C([2H])([2H])C(O)(c1cc(S(=O)(=O)NC(=O)Nc2c3c(cc4c2CCC4)CCC3)oc1C)C([2H])([2H])[2H] [N-((1,2,3,5,6,7-hexahydro-s-indacen-4-yl)carbamoyl)-4-(2-hydroxypropan-2-yl-1,1,1,3,3,3-d6)-5-methylfuran-2-sulfonamide] | < 100 | 
CC(C)n1nc(S(=O)(=O)NC(=O)Nc2c3c(cc4c2CCC4)CCC3)cc1C(F)(F)F [N-((1,2,3,5,6,7-hexahydro-s-indacen-4-yl)carbamoyl)-1-isopropyl-5-(trifluoromethyl)-1H-pyrazole-3-sulfonamide] | < 1000 | 
CCC1=C(C)CN(C(=O)NCCc2ccc(S(=O)(=O)NC(=O)NC3CCC(C)CC3)cc2)C1=O (centres unmarked) [Glimepiride, reference compound] |  | IC50 (NLRP3 inflammasome; commercial compounds (Table 9), read-out: HMDM IC50 vs NLRP3): 92000 nM
O=C(Nc1c2c(cc3c1CCC3)CCC2)NS(=O)(=O)c1cccc(-n2cc(-c3ccccc3)nn2)c1 [N-((1,2,3,5,6,7-hexahydro-s-indacen-4-yl)carbamoyl)-3-(4-phenyl-1H-1,2,3-triazol-1-yl)benzenesulfonamide] | < 10000 | 
O=C(Nc1c2c(cc3c1CCC3)CCC2)NS(=O)(=O)c1ccn(-c2ccccc2)n1 [N-((1,2,3,5,6,7-hexahydro-s-indacen-4-yl)carbamoyl)-1-phenyl-1H-pyrazole-3-sulfonamide] | < 1000 | 
CC(C)(O)c1coc(S(=O)(=O)NC(=O)Nc2c3c(cc4c2CCC4O)CCC3)c1 (centres unmarked) [N-((1-hydroxy-1,2,3,5,6,7-hexahydro-s-indacen-4-yl)carbamoyl)-4-(2-hydroxypropan-2-yl)furan-2-sulfonamide] | < 10000 | 
O=C(Nc1c2c(cc3c1CCC3)CCC2)NS(=O)(=O)c1ccn(C2CC2)n1 [1-cyclopropyl-N-((1,2,3,5,6,7-hexahydro-s-indacen-4-yl)carbamoyl)-1H-pyrazole-3-sulfonamide] | < 100 | 
O=C(Nc1c2c(cc3c1CCC3)CCC2)NS(=O)(=O)N1CCOCC1 [N-((1,2,3,5,6,7-hexahydro-s-indacen-4-yl)carbamoyl)morpholine-4-sulfonamide] | < 10000 | 
CC(C)n1ccc(S(=O)(=O)NC(=O)Nc2c3c(cc4c2CCC4)CCC3)n1 [MCC7840, N-((1,2,3,5,6,7-hexahydro-s-indacen-4-yl)carbamoyl)-1-isopropyl-1H-pyrazole-3-sulfonamide] |  | area under the curve (AUC) in comparison to MCC950 [1]: increased; half-life in comparison to MCC950 [1]: extended half-life; maximum concentration (Cmax) in comparison to MCC950 [1]: increased maximum concentration (Cmax)
